Data as given in publication PMC8199245, “Serotonin Promotes Serum Albumin Interaction with the Monomeric Amyloid β Peptide” (International Journal of Molecular Sciences, 2021).
Entries after “also recorded” stand apart in the source; their conditions may differ.

Legend:
[1] = target: T1, HSA–monomeric Aβ40 (recombinant human Aβ40) (Homo sapiens, UniProt P02768); assay: SPR of HSA interaction with immobilized monomeric Aβ40, without/with SRO or TRP; conditions: SPR 25 °C; for Kd: KD (apparent, HSA–Aβ40), KD × 10^7, i.e. value × 10^−7 M; for Kd / ka (effective, HSA–Aβ40) / kd (effective, HSA–Aβ40): HSA 5–60 µM, mean ± SD; for ka (effective, HSA–Aβ40): ka × 10^−3, i.e. value × 10^3 M^−1s^−1; for kd (effective, HSA–Aβ40): kd × 10^4, i.e. value × 10^−4 s^−1
T1 sequence (P05067 672-711): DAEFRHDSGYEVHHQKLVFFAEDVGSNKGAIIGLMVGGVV
T1 sequence (P02768 25-609): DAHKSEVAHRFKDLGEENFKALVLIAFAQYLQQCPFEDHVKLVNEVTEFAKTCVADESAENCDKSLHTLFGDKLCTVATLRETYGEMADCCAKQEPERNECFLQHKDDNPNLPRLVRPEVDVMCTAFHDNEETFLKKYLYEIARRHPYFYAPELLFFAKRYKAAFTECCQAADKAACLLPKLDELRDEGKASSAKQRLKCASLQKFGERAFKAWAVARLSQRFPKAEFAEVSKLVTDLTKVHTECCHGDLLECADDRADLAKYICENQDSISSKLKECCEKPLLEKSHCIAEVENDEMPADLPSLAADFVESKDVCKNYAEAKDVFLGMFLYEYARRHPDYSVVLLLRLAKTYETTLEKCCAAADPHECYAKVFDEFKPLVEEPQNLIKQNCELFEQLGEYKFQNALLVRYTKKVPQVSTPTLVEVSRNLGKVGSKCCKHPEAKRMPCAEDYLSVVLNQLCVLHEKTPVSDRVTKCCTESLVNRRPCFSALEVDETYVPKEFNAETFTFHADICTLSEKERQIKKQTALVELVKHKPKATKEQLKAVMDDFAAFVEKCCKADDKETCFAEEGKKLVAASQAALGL
Procedure: (§1) The recombinant human Aβ40 or Aβ42 sample was immobilized on the surface of the SPR sensor chip by amine coupling, followed by removal from the surface of the non-covalently bound Aβ molecules by a 2% SDS water solution [12]. […] (5–60 µM) was used as an analyte.
(§2) Aβ40/Aβ42 was immobilized on the sensor chip’s surface by amine coupling.
(§3) Recombinant human Aβ40/Aβ42 samples were pretreated for SPR measurements mainly as described in [46]. The freeze-dried Aβ sample was dissolved in neat TFA at a concentration of 0.5–1 mg/mL. The solution was sonicated for 30 s. TFA was evaporated using Eppendorf Concentrator plus. The dried Aβ sample was dissolved in DMSO at a concentration of 2 mg/mL, and stored at −20 °C.
(§4) SPR measurements were performed at 25 °C using a Bio-Rad ProteOn™ XPR36 instrument mainly as previously described. Ligand (57 μg/mL recombinant human Aβ40/Aβ42 in 10 mM sodium acetate, pH 4.5 buffer) was immobilized on a ProteOn GLH sensor chip surface (up to 7000–9000 RUs) by amine coupling. The remaining activated amine groups on the chip surface were blocked by 1 M ethanolamine solution. The non-covalently bound Aβ40/Aβ42 molecules were washed from the chip surface with 2% SDS water solution until stabilization of the signal. […] The sensor chip surface was regenerated by passage of 10 mM EDTA pH 7.9 solution containing 2% SDS. […] The double-referenced SPR sensograms were globally fitted according to the one-site binding model using Bio-Rad ProteOn Manager™ v.3.1 software.

[2] = system: HSA; assay: Glutaraldehyde crosslinking of HSA with SDS-PAGE; parameters: species or system human; conditions: HSA 36 µM, 37 °C; for effect on quaternary structure of HSA: 1 mM ligand, glutaraldehyde crosslinking, overall statements also rest on DLS
[3] = system: HSA–monomeric Aβ; assay: SPR of HSA interaction with monomeric Aβ (isoform not given); assay type: binding, human
[4] = system: HSA; parameters: method as in PMID 17191887; conditions: read-out: equilibrium dissociation constant (KD) for the HSA–SRO complex; cited from earlier work
[5] = target: T2, HSA–monomeric Aβ42 (recombinant human Aβ42) (Homo sapiens, UniProt P02768); assay: SPR of HSA interaction with immobilized monomeric Aβ42, without/with SRO or TRP; conditions: SPR 25 °C; for Kd: KD (apparent, HSA–Aβ42), KD × 10^7, i.e. value × 10^−7 M; for Kd / ka (effective, HSA–Aβ42) / kd (effective, HSA–Aβ42): HSA 5–60 µM, mean ± SD; for ka (effective, HSA–Aβ42): ka × 10^−3, i.e. value × 10^3 M^−1s^−1; for kd (effective, HSA–Aβ42): kd × 10^4, i.e. value × 10^−4 s^−1
T2 sequence (P05067 672-713): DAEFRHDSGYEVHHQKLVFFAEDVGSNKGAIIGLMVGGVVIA
T2 sequence (P02768 25-609): as the sequence (P02768 25-609) above
Procedure: as §1, §2, §3, §4

[6] = system: HSA; assay: Dynamic light scattering of HSA; parameters: species or system human; conditions: 1 mM SRO, HSA 36 µM, 25 °C, pH 7.4
Procedure: The standard deviations are indicated.
The back-scattered light from a 4 mW He/Ne laser (632.8 nm) was collected at an angle of 173°. The acquisition time for a single autocorrelation function was 45 s. The resulting autocorrelation functions are averaged values from 20 measurements. The volume–size distributions were calculated using the following parameters: a refractive index of 1.330 and a viscosity value of 0.8882 cP.

[7] = physiological (endogenous), cited from earlier work
Procedure: (§5) The SRO concentration in plasma is 0.28–1.7 µM [40], but in the synaptic cleft it may reach 6 mM and 55 nM after SRO diffuses into the extracellular compartment.

[8] = system: Aβ level in interstitial brain fluid; conditions: direct infusion into the hippocampus, mouse model of AD; cited from earlier work
Procedure: as §5

[9] = system: Aβ42; parameters: method as in PMID 29131485; conditions: cited from earlier work
[10] = system: HSA; conditions: cited from earlier work
[11] = target: T2, HSA–monomeric Aβ42 (recombinant human Aβ42); parameters: method as in PMID 30685090; conditions: cited from earlier work
[12] = system: HSA–monomeric Aβ; conditions: cited from earlier work
Text: (§6) An alternative, less invasive approach to the lowering of the free Aβ level in the brain is a pharmacologically guided shift in the equilibrium between HSA and Aβ towards their complex. The latter possibility was recently confirmed by arachidonic/linoleic-aci ...

[13] = target: T1, HSA–monomeric Aβ40 (recombinant human Aβ40); parameters: method as in PMID 30685090; conditions: cited from earlier work
[14] = system: HSA-induced suppression of Aβ fibrillation; parameters: method as in 2 sources, ref 5 = [5]; PMID 10347147; doi:10.1074/jbc.274.23.15990; 5. Bohrmann B. Tjernberg L. Kuner P. Poli S. Levet-Trafit B. Naslund J. Richards G. Huber W. Dobeli H. Nordstedt C. Endogenous proteins controlling amyloid beta-peptide polymerization. Possible implic ||| ref 14 = [14]; PMID 29409811; doi:10.1016/j.jmb.2018.01.008; 14. Bode D.C. Stanyon H.F. Hirani T. Baker M.D. Nield J. Viles J.H. Serum albumin’s protective inhibition of amyloid-β fiber formation is suppressed by cholesterol, fatty acids and warfarin J. Mol. Bi; conditions: cited from earlier work
[15] = system: brain Aβ deposition in AD mouse models; conditions: dietary; cited from earlier work
Text: as §6

[16] = 1 mM SRO, main cause of KD decrease

| SMILES | Kd ([1]; 10 µM HSA ligand, pH 7.4) | Kd ([1]; 1 mM HSA ligand, pH 7.4) | ka (effective, HSA–Aβ40) ([1]; 10 µM HSA ligand, pH 7.4) | ka (effective, HSA–Aβ40) ([1]; 100 µM HSA ligand, pH 7.4) | ka (effective, HSA–Aβ40) ([1]; 1 mM HSA ligand, pH 7.4) | kd (effective, HSA–Aβ40) ([1]; 10 µM HSA ligand, pH 7.4) | kd (effective, HSA–Aβ40) ([1]; 100 µM HSA ligand, pH 7.4) | kd (effective, HSA–Aβ40) ([1]; 1 mM HSA ligand, pH 7.4) | effect on quaternary structure of HSA [2] | effect on HSA's affinity to monomeric Aβ / activation of HSA–Aβ interaction ([3]; general statement, SPR) | Kd ([5]; 10 µM HSA ligand, pH 7.4) | Kd ([5]; 1 mM HSA ligand, pH 7.4) | ka (effective, HSA–Aβ42) ([5]; 10 µM HSA ligand, pH 7.4) | ka (effective, HSA–Aβ42) ([5]; 100 µM HSA ligand, pH 7.4) | ka (effective, HSA–Aβ42) ([5]; 1 mM HSA ligand, pH 7.4) | kd (effective, HSA–Aβ42) ([5]; 10 µM HSA ligand, pH 7.4) | kd (effective, HSA–Aβ42) ([5]; 100 µM HSA ligand, pH 7.4) | fold decrease in KD of HSA–monomeric Aβ42 [11] | effect on HSA affinity to Aβ [12] | fold decrease in KD of HSA–monomeric Aβ40 [13] | other results |
| --- | --- | --- | --- | --- | --- | --- | --- | --- | --- | --- | --- | --- | --- | --- | --- | --- | --- | --- | --- | --- | --- |
| NCCc1c[nH]c2ccc(O)cc12 [SRO, 5-hydroxytryptamine] | 40 ± 20 nM | 9 ± 5 nM | 0.7 ± 0.2 × 10^−3, M^−1s^−1 | 1.5 ± 1.2 × 10^−3, M^−1s^−1 | 1.0 ± 0.5 × 10^−3, M^−1s^−1 | 0.26 ± 0.03 × 10^4, s^−1 | 0.19 ± 0.12 × 10^4, s^−1 | 0.09 ± 0.05 × 10^4, s^−1 | more distinct changes in the quaternary structure of HSA, relative to the TRP-induced effects; also recorded: more marked changes in the quaternary structure of HSA | the most potent activator of HSA–Aβ interaction reported to date | 40 ± 20 nM | 7 ± 1.5 nM | 0.6 ± 0.4 × 10^−3, M^−1s^−1 | 0.9 ± 0.2 × 10^−3, M^−1s^−1 | 1.2 ± 0.2 × 10^−3, M^−1s^−1 | 0.20 ± 0.14 × 10^4, s^−1 | 0.08 ± 0.02 × 10^4, s^−1 | – | – | – | factor of decrease in apparent KD / increase in affinity of HSA–Aβ40 ([1]; 1 mM SRO vs no ligand, pH 7.4): 7 factor; effect on dissociation of HSA–Aβ40 complex [1, 16]: slowdown of the dissociation process; Kd ([1]; 100 µM HSA ligand, pH 7.4): 15 ± 13 nM; fold increase in content of HSA high-molecular-weight forms (at the expense of the monomer) ([2]; 1 mM SRO, 0.02% glutaraldehyde, 1 h, pH 7.4): approximately 2 fold; effect on HSA's affinity to Aβ ([3]; 10 µM SRO, SPR 25 °C): absence of a marked influence; fold decrease in KD of HSA–Aβ ([3]; up to, vs no ligand): ≤ 17 fold; Kd [4]: 1600 nM; factor of decrease in apparent KD / increase in affinity of HSA–Aβ42 ([5]; 1 mM SRO vs no ligand, pH 7.4): 17 factor; effect on dissociation of HSA–Aβ42 complex [5, 16]: slowdown of the dissociation process; Kd ([5]; 100 µM HSA ligand, pH 7.4): 9 ± 4 nM; kd (effective, HSA–Aβ42) ([5]; 1 mM HSA ligand, pH 7.4): 0.086 ± 0.009 × 10^4, s^−1; accumulation of multimeric HSA forms (DLS), compared with TRP [6]: more prominent accumulation of its multimeric forms; SRO concentration after diffusion into the extracellular compartment ([7]; may reach): ≤ 55 nM; SRO concentration in the synaptic cleft ([7]; may reach): ≤ 6 mM; SRO concentration in plasma [7]: 0.28 to 1.7 µM; Aβ level in interstitial brain fluid [8]: decrease in the Aβ level in interstitial brain fluid; inhibition of Aβ42 fibrillation ([9]; 50–100 µM SRO): efficient inhibition of Aβ42 fibrillation; also recorded: potent inhibition of Aβ42 fibrillation |
| N[C@@H](Cc1c[nH]c2ccccc12)C(=O)O [TRP, L-tryptophan] | 80 ± 40 nM | 70 ± 40 nM | 0.7 ± 0.2 × 10^−3, M^−1s^−1 | 0.47 ± 0.15 × 10^−3, M^−1s^−1 | 0.6 ± 0.2 × 10^−3, M^−1s^−1 | 0.49 ± 0.12 × 10^4, s^−1 | 0.53 ± 0.17 × 10^4, s^−1 | 0.4 ± 0.2 × 10^4, s^−1 | did not affect the quaternary structure of HSA | does not affect HSA’s affinity to monomeric Aβ; also recorded: did not affect HSA’s effective affinity for Aβ; also recorded: inactive | 60 ± 40 nM | 60 ± 30 nM | 0.8 ± 0.4 × 10^−3, M^−1s^−1 | 0.5 ± 0.3 × 10^−3, M^−1s^−1 | 0.29 ± 0.07 × 10^−3, M^−1s^−1 | 0.4 ± 0.2 × 10^4, s^−1 | 0.7 ± 0.6 × 10^4, s^−1 | – | – | – | effect on HSA's apparent affinity to Aβ40 ([1]; 1 mM ligand): did not affect HSA’s apparent affinity; equilibrium association constant of TRP with HSA [10]: 27000 M⁻¹; effect on kinetics of HSA–Aβ interaction ([3]; general statement, SPR): slowdown of the association and dissociation processes; also recorded: slowed their association and dissociation; effect on kinetics of HSA–Aβ42 interaction ([5]; 1 mM TRP): slowdown of the association and dissociation processes; effect on HSA's apparent affinity to Aβ42 ([5]; 1 mM ligand): did not affect HSA’s apparent affinity; inhibition of Aβ42 fibrillation compared with SRO [9]: markedly less effective; also recorded: much less efficient inhibition of Aβ42 fibrillation |
| CCCCC/C=C\C/C=C\C/C=C\C/C=C\CCCC(=O)O [arachidonic acid] | – | – | – | – | – | – | – | – | – | – | – | – | – | – | – | – | – | 3 fold | enhancement of HSA affinity to Aβ | 3 fold | – |
| CC(C)CCC[C@@H](C)[C@H]1CC[C@H]2[C@@H]3CC=C4C[C@@H](O)CC[C@]4(C)[C@H]3CC[C@]12C [cholesterol] | – | – | – | – | – | – | – | – | – | – | – | – | – | – | – | – | – | – | – | – | effect on HSA-induced suppression of Aβ fibrillation [14]: prevent HSA-induced suppression of Aβ fibrillation |
| CCCCC/C=C\C/C=C\CCCCCCCC(=O)O [linoleic acid] | – | – | – | – | – | – | – | – | – | – | – | – | – | – | – | – | – | 3 fold | enhancement of HSA affinity to Aβ | 3 fold | effect on brain Aβ deposition [15]: reduces brain Aβ deposition |
| CC(=O)CC(c1ccccc1)c1c(O)c2ccccc2oc1=O (stereo not drawn) [warfarin] | – | – | – | – | – | – | – | – | – | – | – | – | – | – | – | – | – | – | – | – | effect on HSA-induced suppression of Aβ fibrillation [14]: prevent HSA-induced suppression of Aβ fibrillation |
